Results published in a melting point compilation (Tetko et al.; mined from patent text by program, amines drawn as free bases though some values may be those of a salt).

Row | melting point | SMILES
1 | 165 to 167 °C | COc1ccc(-c2nn(Cc3ccccc3)c(=O)cc2-c2ccc(Cl)cc2)cc1
2 | > 250 °C | CN1CCC(c2c3n(c4ccc(O)cc24)CCC3)CC1
3 | 196 to 197 °C | O=C(Cn1c(-c2ccc(Cl)cc2)nc2cccnc21)N1CCC1
4 | 135 °C | Cc1nc(-c2ccc(Cl)cc2)oc1CO
5 | 79 to 81 °C | C=CCN1CCC[C@H]1C(N)=O
6 | 83 to 84 °C | O=S(=O)(Nc1ccc(Cl)cc1Sc1ccc(Cl)cc1)C(F)(F)F
7 | 198 °C | O=C(Cn1ccnc1)c1ccc(-c2ccccc2)cc1
8 | 104 to 105 °C | CC(C)(C)OC(=O)N1CC(c2ccc(N=C(c3ccccc3)c3ccccc3)nc2)C1
9 | 92 to 96 °C | CC(=O)OC1(C)CN(C(=O)Nc2ccc(C(F)(F)F)cc2)N=C1c1ccc(Cl)cc1 (stereo not drawn)
10 | 134 to 136 °C | CCCCc1nc2cc(C(=O)OC)ccc2n1Cc1ccc(-c2ccccc2-c2nnn[nH]2)cc1
11 | 162 to 163 °C | c1ccc(CCC2CCN(Cc3c[nH]c4ncccc34)CC2)cc1
12 | 253 °C | N#Cc1c(N2CCN(C(=O)c3cccs3)CC2)c2cc(Cl)ccc2n(Cc2ccc(F)cc2)c1=O
13 | 140 to 155 °C | Cc1cc(SC2=C(O)CC(CCc3ccncc3)(C(C)C)OC2=O)c(C(C)(C)C)cc1CO (stereo not drawn)
14 | 84 to 91 °C | CCCCCCCCCCCC(=O)OC1CC(c2ccccc2)N(O)C(c2ccccc2)C1C (stereo not drawn)
15 | 83 to 85 °C | CCOC(=O)CCCN(C(=O)CC)C(c1ccccc1)c1ccccc1
16 | 69 to 71 °C | OCc1c[nH]c(Sc2ccccc2)c1
17 | 89 to 90 °C | CN1CCN(c2nc3ccccc3nc2Cc2ccccc2)CC1
18 | 161 to 162 °C | O=c1ccc(C(c2ccccc2)c2ccccc2)n[nH]1
19 | 126 to 128 °C | CC(C)(C)C=CC1=C(O)C(=O)c2ccccc2C1=O
20 | 66 to 68 °C | OC(CCl)c1ccc(-c2ccc(SC(F)F)cc2)cc1 (stereo not drawn)
21 | 219 to 221 °C | COc1ccc(Nc2cc([N+](=O)[O-])ccc2C)c(C(=O)O)c1
22 | 95 °C | CC(C)COC(c1cc(Cl)cc([N+](=O)[O-])c1O)c1cc(Cl)cc([N+](=O)[O-])c1O
23 | > 300 °C | COCCNc1nc(C2C(=O)Nc3ccc(Br)cc32)c2cn(CCOC)nc2n1 (stereo not drawn)
24 | 201 to 203 °C | CCOC(=O)c1cn(-c2nncs2)c2nc(Cl)c(F)cc2c1=O

Row | melting point | SMILES
25 | 141 to 143 °C | CCOC(=O)c1cc2c(nc1N)CCN(Cc1ccccc1)C2
26 | 118 to 122 °C | O=c1[nH]c2cscc2c(=O)n1CCCCCN1CCC(=C(c2ccc(F)cc2)c2ccc(F)cc2)CC1
27 | 120 to 122 °C | CC(C)C[C@@H](OC(=O)c1cc(Cl)ccn1)C(=O)O
28 | 207 to 208 °C | Clc1ccc(NC2=Nc3ccccc3CS2)cc1Cl
29 | 206 to 207 °C | COc1ccc(Cl)c2c1NC(=O)C2=[N+]=[N-]
30 | 230 to 231 °C | O=C1Nc2cccc(-c3ccoc3)c2C12COc1cc3c(cc12)OCO3 (stereo not drawn)
31 | 88 to 90 °C | OC(Cn1cncn1)(OCCOc1ccc(Cl)cc1Cl)c1ccc(Cl)cc1Cl (stereo not drawn)
32 | 183 to 187 °C | O=C1C(=O)c2ccccc2C2=C1SCC1(CCC(c3ccccc3)CC1)O2 (stereo not drawn)
33 | 219 to 222 °C | Cc1c(C(=O)O)nc2ccc3c(c2c1-c1ccc2c(c1)OCO2)OCO3
34 | 98 °C | CC(C)N(C(=O)c1ccc(F)cc1)C1CCN(Cc2ccccc2)CC1
35 | 119 to 121 °C | O=C(c1ccc(Cn2cnc3cnccc32)cc1)N1CCOCC1
36 | 115 °C | COC(=O)CCCc1cc2cc(C(F)(F)F)ccc2n1S(=O)(=O)c1cccc(C(C)C)c1
37 | 113 to 114 °C | COCCOc1ccc(/C=C/COC(=O)NS(=O)(=O)NCCc2ccccc2)c(Oc2ncc(C(F)(F)F)cc2Cl)c1
38 | 176 to 177 °C | NNC(=O)C(Cl)c1cccc(Cl)n1 (stereo not drawn)
39 | 212 to 215 °C | CC(=O)C1CCC2C3CCC4CC(O)C(N5CC(C)(C)OC(C)(C)C5)CC4(C)C3C(=O)CC12C (stereo not drawn)
40 | 192 to 196 °C | CCCCN=C(O)c1cc([N+](=O)[O-])cc(Sc2ccccc2C(=O)O)c1C(=O)O
41 | 191 to 192 °C | CC(C(N)=NO)N(CCN(C(C)C(N)=NO)C(C)C(N)=NO)C(C)C(N)=NO (stereo not drawn)
42 | 166 to 168 °C | COc1cc(C)cc(S(=O)(=O)c2cccc(N)c2C#N)c1
43 | 58 to 60 °C | CCCCCCOc1c(CBr)ccc2c(OCCCCCC)c(CBr)ccc12
44 | 115 to 116 °C | CSc1nccc(Oc2ccc(NC(=O)c3cc(F)cc(OC4CCCC4)c3)c3ccccc23)n1
45 | 64.8 to 65.7 °C | CCCCOC(=O)Oc1ccc(-c2ccc(C#N)cc2)cc1
46 | 58 °C | CC(COc1ccccc1)OS(C)(=O)=O (stereo not drawn)
47 | 140 to 141 °C | CCOC(=O)c1ncoc1-c1ccc([N+](=O)[O-])cc1Cl
48 | 143 to 145 °C | N#Cc1cccnc1N1CCN(CC(=O)Nc2ccccc2C(F)(F)F)CC1

Row | melting point | SMILES
49 | 170 to 172 °C | Cc1ccccc1Sc1cncc2sc(C(N)=O)cc12
50 | 102 °C | CCOC(=O)C1(Br)Oc2ccccc2OC1Br (stereo not drawn)
51 | 41 to 42 °C | C=CCCn1cnc2c1c(=O)n(CCCC)c(=O)n2CCCC
52 | 115 to 116 °C | CCCOc1ccc(C)cc1-c1nc2c(CCC)nn(C)c2c(=O)[nH]1
53 | 155 °C | Nc1nc2ccc(SC(F)(F)F)cc2s1
54 | 88 to 94 °C | O=C(CCCC1CCN(Cc2cccc(O)c2)CC1)c1ccc2c(c1)CCN(Cc1ccccc1)CC2
55 | 203 to 205 °C | Cc1ccc2nc(-c3cccnc3N)n(-c3ccc(CNC(=O)c4ccccc4)cc3)c2n1
56 | 103 to 104 °C | CCCCc1nc2cccc(C(=O)OC)c2n1Cc1ccc(-c2c(C#N)cnc3ccccc23)cc1
57 | 190 to 191 °C | COc1cc(C2C3=C(COC3=O)Nc3ccc4nc(C)sc4c32)ccc1[N+](=O)[O-] (stereo not drawn)
58 | 97 to 107 °C | CC(C)OC(=O)Cn1c(=O)n(C)c(=O)n(-c2cc(N=c3sc(=O)n4n3CCCC4)c(F)cc2Cl)c1=O
59 | 89 to 90 °C | COCc1cccc(COC)c1SSc1c(COC)cccc1COC
60 | 133 to 135 °C | Cc1cc(-c2ccc(S(C)(=O)=O)cc2)n(-c2ccc(-c3ccco3)cc2)c1
61 | 90 to 92 °C | CC(CCC(=O)O)(Sc1cc(C(C)(C)C)c(O)c(C(C)(C)C)c1)Sc1cc(C(C)(C)C)c(O)c(C(C)(C)C)c1
62 | 147 to 149 °C | C=CCOc1nc(Nc2ccc(OC)nc2)nc2c1ncn2CCCC
63 | 280 to 281 °C | Cc1ccc2c(c1)[nH]c1cc(C)ccc12
64 | 214 °C | O=C(Nc1ccccc1S(=O)(=O)c1ccccc1)N[C@@H](Cc1ccc(NC(=O)c2c(Cl)cncc2Cl)cc1)C(=O)O
65 | 106 °C | CC(=O)n1ccn(C(C)=O)c1=O
66 | 168 to 171 °C | COc1ccc2c(n1)C1(CO2)C(=O)N(Cc2ccccn2)c2ccccc21 (stereo not drawn)
67 | 308 to 310 °C | O=C1CC(c2ccc(Cl)cc2Cl)Cc2[nH]c3ccc(Cl)cc3c(=O)c21 (stereo not drawn)
68 | 137 to 138 °C | CCOC(=O)Cn1c(=O)c2cc(Cl)ccc2n(Cc2ccc(Cl)cc2)c1=O
69 | 111 °C | CC(=O)Oc1ccc(-c2cnc(C)nc2Cl)cc1OC(C)=O
70 | 121 to 122 °C | CCCc1nc2ccc(N)cc2n1Cc1ccccc1Cl
71 | 95 to 98 °C | O=[N+]([O-])c1ccc2[nH]cc(CCCI)c2c1
72 | 191 to 194 °C | O=C(Cc1ccccc1Cl)Nc1ccc(C(=O)N2Cc3ccccc3Cc3ccccc32)cc1

Row | melting point | SMILES
73 | 177 to 182 °C | CCOC(=O)C1=C(CS(=O)(=O)c2ccccc2)Nc2ccnc(OC(C)C)c2C1c1ccccc1C(F)(F)F (stereo not drawn)
74 | 246 to 252 °C | CC(=O)C1=CCC2C3CCC4CC(O)C(Cl)CC4(C)C3CCC12C (stereo not drawn)
75 | 138 °C | CC(=O)OC1CSC(Oc2cncc(-c3ccncc3)c2)C(OC(C)=O)C1OC(C)=O (stereo not drawn)
76 | 97 to 98 °C | COc1cc2c(cc1OC)N(C(=O)C=Cc1ccccc1)CC(N(C)C)C2 (stereo not drawn)
77 | 193 to 196 °C | COc1cc(OCCCN2CCOCC2)c(C=CC(=O)c2ccc(S(N)(=O)=O)cc2)cc1-c1cccs1
78 | 205 to 206 °C | CCOC(=O)c1nccc(NC=O)n1
79 | 234 to 235 °C | Cc1ccc2nc(C3(c4ccc(S(N)(=O)=O)cc4)C=C(C(F)(F)C(F)(F)F)NN3)sc2c1 (stereo not drawn)
80 | 52 to 54 °C | COc1ccc2c(c1)CCC(=C(O)C(F)F)C2=O
81 | 159 to 161 °C | N#CC=C1CCN(c2ccc(N3C[C@H](CNC(=O)C(Cl)Cl)OC3=O)cc2F)CC1
82 | 69 to 71 °C | CCOc1nc(N)nc(OC(F)(F)F)n1
83 | 69 °C | CC(C(O)CCc1ccc(OC(F)(F)F)cc1)n1cncn1 (stereo not drawn)
84 | 262 to 264 °C | CC(C)NCC(O)COc1ccc2nc3[nH]c(=O)[nH]c3cc2c1 (stereo not drawn)
85 | 142 to 145 °C | CC(C)(C)OC(=O)N[C@@H](CCl)[C@H](O)CCl
86 | 107 to 109 °C | CCC(CC)(NCCCn1cnc(CCNC(=O)c2ccc(C#N)cc2)c1)c1ccccc1
87 | 77 to 79 °C | CCCc1c(OCCCOc2ccc3c(c2CCC)OC(C)(CCC(N)=O)CC3=O)ccc(C(C)=O)c1O (stereo not drawn)
88 | > 300 °C | O=C(c1ccccc1C(c1ccc(O)cc1)c1ccc(O)cc1)N(C1CCCCC1)C1CCCCC1
89 | 76 to 77 °C | c1ccc(CSc2nccn2-c2ccccn2)cc1
90 | 206 to 210 °C | CC(C)c1ccccc1NN
91 | > 260 °C | O=C(C1CCCCC1)N1CC(=NO)NC(=NO)C1
92 | 208 to 210 °C | COCCNc1nc(-n2ccnc2)nc2ccc(C(C)=O)cc12
93 | 245 to 250 °C | Cc1nc[nH]c1C(=O)Nc1ccc(-n2nc(C3CC3)cc2C(F)(F)F)cc1
94 | 235 to 236 °C | CC1=NCCN1c1cnc2[nH]cc(C(=O)C(C)(C)C)c2n1

Row | SMILES | melting point
95 | NNC1=Nc2ccc(Cl)cc2N(c2ccccc2)C(=O)C1 | 91 to 93 °C
96 | O=C(N[C@@H]1CN[C@H]2CCO[C@H]21)C(F)(F)F (relative stereo) | 106 to 110 °C
97 | COC(=O)C12Cc3cc(Cl)ccc3C1=NN(C(=O)N(C)c1ccc(OC(F)(F)F)cc1)CO2 (stereo not drawn) | 130 to 131 °C
98 | Nc1nc2c(s1)CC(CN1CC=C(c3ccccc3)CC1)CC2 (stereo not drawn) | 187 to 190 °C
